Measurements taken from US6013278A (priority 1997, dated 2000).
“Also recorded” adds a separate entry of the source.

How the values were obtained:
BT-20 cells [1] = assay: Cellular uptake of free and liposomal antineoplastons into BT-20 cells (reduction of media concentration, HPLC); details: for uptake rate on second and third days / cellular uptake (qualitative): free compound; for uptake rate on second and third days: day two and three vs first day; for cellular uptake (qualitative): time course up to 72 hours; for level of uptake associated with equivalent antineoplastic activity (IC50): at IC50 concentration (~0.8 mM CN, 15 mM PN); for dependence of cellular uptake on media concentration: end of eight hour incubation
Protocol: The time-course and concentration dependency of the cellular uptake of free and liposomally formulated antineoplaston agents in Examples 2, 3 and 4 were assayed by monitoring reductions in media concentrations. The uptake of these antineoplaston agents were examined in BT-20 human breast cancer cells.
Cellular uptake of free D- and free L-CN (3-phenylacetyl-amino-2, 6, piperidinedione) were investigated in BT-20 cells. Cells were plated in 200 μl of media (3,000 cells/well--96 well plates), and 24 or 96 hrs later the plating media was replaced with fresh media containing free CN at final concentrations of 100, 300, 500, 800 μM. The levels of CN remaining in the media were determined following 0, 2, 4, 6, 8, 24, 48 and 72 hours of incubation. When the cellular uptake of liposomal antineoplastons was assessed, the total levels of liposomes were equivalent across all levels of the test agents.
At the indicated times after the addition of the test compound, the media was harvested, centrifuged (110 ×g; 10 min; 4° C.) and the supernatant stored at -70° C. until assayed using a validated HPLC method. For each test agent, all concentrations were tested at all time points and there were six replicate wells at each time point. Media from the replicate wells was pooled for the HPLC analysis. Compound levels were determined with at least two HPLC injections and the variance between injections was less than 10%.
Cellular uptake of free PN was investigated in BT-20 cells.
Cellular uptake of liposomal CN was investigated in BT-20 cells.

cell growth [2] = assay: In vitro dose-response studies on individual components of antineoplaston therapy (cell growth); assay type: cell-based; details: Homo sapiens; free compound; cell line not stated (uptake example in BT-20); read-out: IC50 (antineoplastic activity)
[3] = system: human glioblastoma (U87) cells; assay: Antineoplastic effect of free and liposomal AS2-1, PG and PN (cell counts); details: U-87 MG, 72 h, read-out: IC50 (concentration producing a half maximal antineoplastic effect)
U87 cells = assay: Cellular uptake of free and liposomal PN and PG in U87 cells
Protocol: Experiments with this cell line plated 3000 cells per well and following a four day interval to allow the cells to enter the exponential growth phase the test agents were added. The media was replaced on day three and cell counts were obtained at day 3 and 7.

cell growth [4] = details: in vitro, cited from earlier work
BT-20 cells [5] = assay: Antineoplastic activity of free and liposomal CN (viable cell number, trypan blue); assay type: cell-based, human; details: single administration, 800 uM; listed as free CN
Protocol: To determine whether this effect leads to enhanced antineoplastic activity, the antineoplastic activity of free and liposomal CN was examined in BT-20 cells. […] Control cells in the liposomal condition received the equivalent levels of liposomes without CN. Following a 24, 48 or 72 hr incubation, cells from six replicate wells were pooled and the number of viable cells determined using trypan blue and a hemocytometer.

[6] = system: BT-20 human breast cancer cells; assay: Uptake and intracellular levels of free and bound CN and PG/Iso-PG (intracellular metabolism of free and liposomal CN); assay type: in vitro ADME; details: 24 hr
Protocol: At selected times the cells were washed (3×with PBS), trypsinized, pooled, and homogenized in 200 μl of isotonic saline. […] Antineoplaston components or their derivatives found in the supernatant are considered to be unbound or "free", while antineoplaston agents in the pellet are thought to be "bound" to protein or cellular structures easily pelleted by low gravity centrifugation. […] To better understand the time course of the intracellular fate of liposomal CN, BT-20 cells were exposed as in Example 5 to liposomal CN for 1, 2 and 4 hours.

Structure (SMILES): O=C1CC[C@H](NC(=O)Cc2ccccc2)C(=O)N1 [L-CN]
- cellular uptake during the first six hours (BT-20 cells [1]; free D-CN vs free L-CN): more effectively than free D-CN
- uptake rate on second and third days (BT-20 cells [1]): the rate of uptake is diminished on the second and third days of the incubation
- cellular uptake (qualitative) (BT-20 cells [1]): rapidly and extensively taken up

Structure (SMILES): O=C1CC[C@@H](NC(=O)Cc2ccccc2)C(=O)N1 [D-CN]
- uptake rate on second and third days (BT-20 cells [1]): do not exhibit this late stage reduction in CN uptake
- cellular uptake (qualitative) (BT-20 cells [1]): rapidly and extensively taken up

Structure (SMILES): O=C(O)Cc1ccccc1 [PN, phenylacetate]
- IC50 (cell growth [2]): ~15 mM
- IC50 [3]: ~15 mM
- uptake per cell (U87 cells; 30 mM free PN, U87 cells, 3 day): 50 pmol
- uptake of free compound compared (PN vs PG) (U87 cells; 3 day interval): equivalent and is concentration dependent
- uptake per cell (BT-20 cells [1]; BT-20 cells, 30 mM, comparison value): ~ 55 pmole
- level of uptake associated with equivalent antineoplastic activity (IC50) (BT-20 cells [1]): ~ 30 pmoles/cell
- dependence of cellular uptake on media concentration (BT-20 cells [1]): linearly related to media concentration
- cellular uptake (qualitative) (BT-20 cells [1]): concentration- and time-dependent take up
- time to completion of uptake (BT-20 cells [1]; high concentrations (e.g., 30 mM)): completed within the first two hours
- cellular uptake (BT-20 cells [1]; initial media concentration 30 mM): ~ 54 pmoles/BT-20 cell
- cellular uptake (BT-20 cells [1]; media concentration 3.0 mM): ~ 14 pmoles/BT-20 cell

Structure (SMILES): O=C1CCC(NC(=O)Cc2ccccc2)C(=O)N1 (centres unmarked) [CN, 3-phenylacetyl-amino-2,6, piperidinedione]
- IC50 (cell growth [2]): ~0.8 mM
- suppression of cell growth (cell growth [4]; at ~0.8 mM): 50%
- antineoplastic activity on a molar basis (cell growth [4]; relative to other components): most potent antineoplastic activity
- antineoplastic activity / suppression of BT-20 cell growth (BT-20 cells [5]): ineffective in suppressing BT-20 cell growth; also recorded: no antineoplastic activity
- cellular uptake by 72 hours (BT-20 cells [1]; 72 hours): approximating that produced by liposomal CN during a two hour incubation
- level of uptake associated with equivalent antineoplastic activity (IC50) (BT-20 cells [1]): ~ 30 pmoles/cell
- dependence of cellular uptake on media concentration (BT-20 cells [1]): linearly related to media concentration
- Uptake of CN ([6]; 800 μM CN (53 pmole/cell) added): 43.2 pmole/cell
- Free intracellular PG/Iso-PG ([6]; 800 μM CN added): 36.7 pmole/cell
- Free intracellular CN ([6]; 800 μM, ND = Not detected): intact CN cannot be found inside the cells
